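Five concentrations, 48 hours, 96-well plates. GI50 is the concentration that inhibits growth by half. TGI marks complete inhibition of growth.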
What was measured:
Experiment in all cases: NCI tumour cell line growth inhibition, 48 h
[1] = tested on: 786-0 renal
[2] = tested on: A498 renal
[3] = tested on: A549 NSCLC
[4] = tested on: ACHN renal
[5] = tested on: BT-549 breast
[6] = tested on: CAKI-1 renal
[7] = tested on: CCRF-CEM leukemia
[8] = tested on: COLO 205 colon
[9] = tested on: DU-145 prostate
[10] = tested on: HCC-2998 colon
[11] = tested on: HCT-116 colon
[12] = tested on: HCT-15 colon
[13] = tested on: HL-60(TB) leukemia
[14] = tested on: HOP-62 NSCLC
[15] = tested on: HS 578T breast
[16] = tested on: HT29 colon
[17] = tested on: IGROV1 ovarian
[18] = tested on: K-562 leukemia
[19] = tested on: KM12 colon
[20] = tested on: M14 melanoma
[21] = tested on: MALME-3M melanoma
[22] = tested on: MCF7 breast
[23] = tested on: MDA-MB-231 breast
[24] = tested on: MDA-MB-435
[25] = tested on: MOLT-4 leukemia
[26] = tested on: NCI-H226 lung
[27] = tested on: NCI-H23 lung
[28] = tested on: NCI-H460 lung
[29] = tested on: NCI-H522 lung
[30] = tested on: NCI/ADR-RES ovarian
[31] = tested on: OVCAR-3 ovarian
[32] = tested on: OVCAR-4 ovarian
[33] = tested on: OVCAR-5 ovarian
[34] = tested on: OVCAR-8 ovarian
[35] = tested on: PC-3 prostate
[36] = tested on: RPMI-8226 leukemia
[37] = tested on: RXF 393 renal
[38] = tested on: SF-268 CNS
[39] = tested on: SF-295 CNS
[40] = tested on: SF-539 CNS
[41] = tested on: SK-MEL-28 melanoma
[42] = tested on: SK-MEL-5 melanoma
[43] = tested on: SK-OV-3 ovarian
[44] = tested on: SN12C renal
[45] = tested on: SNB-19 CNS
[46] = tested on: SNB-75 CNS
[47] = tested on: SR leukemia
[48] = tested on: SW-620 colon
[49] = tested on: T-47D breast
[50] = tested on: TK-10 renal
[51] = tested on: UACC-257 melanoma
[52] = tested on: UACC-62 melanoma
[53] = tested on: UO-31 renal
[54] = tested on: HOP-92 NSCLC
[55] = tested on: LOX IMVI melanoma
[56] = tested on: SK-MEL-2 melanoma
[57] = tested on: U251 CNS

O=C(Cc1ccc(OCc2ccccc2)cc1)NCc1ccc2c(c1)OCO2
GI50 [1]: 30.3 µM
TGI [1]: > 100 µM
GI50 [2]: > 100 µM
TGI [2]: > 100 µM
GI50 [3]: > 100 µM
TGI [3]: > 100 µM
GI50 [4]: > 100 µM
TGI [4]: > 100 µM
GI50 [5]: > 100 µM
TGI [5]: > 100 µM
GI50 [6]: > 100 µM
TGI [6]: > 100 µM
GI50 [7]: > 100 µM
TGI [7]: > 100 µM
GI50 [8]: 14.4 µM
TGI [8]: > 100 µM
GI50 [9]: > 100 µM
TGI [9]: > 100 µM
GI50 [10]: > 100 µM
TGI [10]: > 100 µM
GI50 [11]: 30.1 µM
TGI [11]: > 100 µM
GI50 [12]: 5.31 µM
TGI [12]: > 100 µM
GI50 [13]: 9.3 µM
TGI [13]: > 100 µM
GI50 [14]: 6.98 µM
TGI [14]: > 100 µM
GI50 [15]: 9.82 µM
TGI [15]: > 100 µM
GI50 [16]: 37.9 µM
TGI [16]: > 100 µM
GI50 [17]: > 100 µM
TGI [17]: > 100 µM
GI50 [18]: 4.64 µM
TGI [18]: > 100 µM
GI50 [19]: 10.8 µM
TGI [19]: > 100 µM
GI50 [20]: 7.71 µM
TGI [20]: > 100 µM
GI50 [21]: 29.2 µM
TGI [21]: > 100 µM
GI50 [22]: 5.43 µM
TGI [22]: > 100 µM
GI50 [23]: 59 µM
TGI [23]: > 100 µM
GI50 [24]: 2320 nM
TGI [24]: 5.93 µM
GI50 [25]: > 100 µM
TGI [25]: > 100 µM
GI50 [26]: > 100 µM
TGI [26]: > 100 µM
GI50 [27]: > 100 µM
TGI [27]: > 100 µM
GI50 [28]: > 100 µM
TGI [28]: > 100 µM
GI50 [29]: > 100 µM
TGI [29]: > 100 µM
GI50 [30]: 9.26 µM
TGI [30]: > 100 µM
GI50 [31]: > 100 µM
TGI [31]: > 100 µM
GI50 [32]: > 100 µM
TGI [32]: > 100 µM
GI50 [33]: > 100 µM
TGI [33]: > 100 µM
GI50 [34]: > 100 µM
TGI [34]: > 100 µM
GI50 [35]: > 100 µM
TGI [35]: > 100 µM
GI50 [36]: > 100 µM
TGI [36]: > 100 µM
GI50 [37]: 5.18 µM
TGI [37]: > 100 µM
GI50 [38]: 6.72 µM
TGI [38]: > 100 µM
GI50 [39]: 64.4 µM
TGI [39]: > 100 µM
GI50 [40]: 9.11 µM
TGI [40]: > 100 µM
GI50 [41]: > 100 µM
TGI [41]: > 100 µM
GI50 [42]: 70.7 µM
TGI [42]: > 100 µM
GI50 [43]: 8.18 µM
TGI [43]: > 100 µM
GI50 [44]: > 100 µM
TGI [44]: > 100 µM
GI50 [45]: 41.9 µM
TGI [45]: > 100 µM
GI50 [46]: 2170 nM
TGI [46]: 6.53 µM
GI50 [47]: 5.23 µM
TGI [47]: > 100 µM
GI50 [48]: 7.14 µM
TGI [48]: > 100 µM
GI50 [49]: 48.3 µM
TGI [49]: > 100 µM
GI50 [50]: > 100 µM
TGI [50]: > 100 µM
GI50 [51]: > 100 µM
TGI [51]: > 100 µM
GI50 [52]: 14.3 µM
TGI [52]: > 100 µM
GI50 [53]: > 100 µM
TGI [53]: > 100 µM

CC(C)CNC(=O)c1ccc(NC(=O)N(CC(C)C)C(=O)c2ccc(N)c(OCCCN)c2)c(OCCCN=C(N)N)c1
GI50 [1]: > 62.5 µM
TGI [1]: > 62.5 µM
GI50 [2]: > 62.5 µM
TGI [2]: > 62.5 µM
GI50 [3]: > 62.5 µM
TGI [3]: > 62.5 µM
GI50 [4]: > 62.5 µM
TGI [4]: > 62.5 µM
GI50 [5]: > 62.5 µM
TGI [5]: > 62.5 µM
GI50 [7]: > 62.5 µM
TGI [7]: > 62.5 µM
GI50 [8]: > 62.5 µM
TGI [8]: > 62.5 µM
GI50 [9]: > 62.5 µM
TGI [9]: > 62.5 µM
GI50 [10]: > 62.5 µM
TGI [10]: > 62.5 µM
GI50 [11]: > 62.5 µM
TGI [11]: > 62.5 µM
GI50 [12]: > 62.5 µM
TGI [12]: > 62.5 µM
GI50 [13]: > 62.5 µM
TGI [13]: > 62.5 µM
GI50 [14]: > 62.5 µM
TGI [14]: > 62.5 µM
GI50 [54]: > 62.5 µM
TGI [54]: > 62.5 µM
GI50 [15]: > 62.5 µM
TGI [15]: > 62.5 µM
GI50 [16]: > 62.5 µM
TGI [16]: > 62.5 µM
GI50 [17]: > 62.5 µM
TGI [17]: > 62.5 µM
GI50 [18]: > 62.5 µM
TGI [18]: > 62.5 µM
GI50 [19]: > 62.5 µM
TGI [19]: > 62.5 µM
GI50 [55]: > 62.5 µM
TGI [55]: > 62.5 µM
GI50 [20]: > 62.5 µM
TGI [20]: > 62.5 µM
GI50 [21]: > 62.5 µM
TGI [21]: > 62.5 µM
GI50 [22]: > 62.5 µM
TGI [22]: > 62.5 µM
GI50 [23]: > 62.5 µM
TGI [23]: > 62.5 µM
GI50 [24]: > 62500 nM
TGI [24]: > 62.5 µM
GI50 [25]: > 62.5 µM
TGI [25]: > 62.5 µM
GI50 [26]: > 62.5 µM
TGI [26]: > 62.5 µM
GI50 [27]: > 62.5 µM
TGI [27]: > 62.5 µM
GI50 [28]: > 62.5 µM
TGI [28]: > 62.5 µM
GI50 [29]: > 62.5 µM
TGI [29]: > 62.5 µM
GI50 [30]: > 62.5 µM
TGI [30]: > 62.5 µM
GI50 [31]: > 62.5 µM
TGI [31]: > 62.5 µM
GI50 [32]: > 62.5 µM
TGI [32]: > 62.5 µM
GI50 [33]: > 62.5 µM
TGI [33]: > 62.5 µM
GI50 [34]: > 62.5 µM
TGI [34]: > 62.5 µM
GI50 [35]: > 62.5 µM
TGI [35]: > 62.5 µM
GI50 [36]: > 62.5 µM
TGI [36]: > 62.5 µM
GI50 [37]: > 62.5 µM
TGI [37]: > 62.5 µM
GI50 [38]: > 62.5 µM
TGI [38]: > 62.5 µM
GI50 [39]: > 62.5 µM
TGI [39]: > 62.5 µM
GI50 [40]: > 62.5 µM
TGI [40]: > 62.5 µM
GI50 [56]: > 62.5 µM
TGI [56]: > 62.5 µM
GI50 [41]: > 62.5 µM
TGI [41]: > 62.5 µM
GI50 [42]: > 62.5 µM
TGI [42]: > 62.5 µM
GI50 [43]: > 62.5 µM
TGI [43]: > 62.5 µM
GI50 [44]: > 62.5 µM
TGI [44]: > 62.5 µM
GI50 [45]: > 62.5 µM
TGI [45]: > 62.5 µM
GI50 [46]: > 62500 nM
TGI [46]: > 62.5 µM
GI50 [47]: > 62.5 µM
TGI [47]: > 62.5 µM
GI50 [48]: > 62.5 µM
TGI [48]: > 62.5 µM
GI50 [49]: > 62.5 µM
TGI [49]: > 62.5 µM
GI50 [50]: > 62.5 µM
TGI [50]: > 62.5 µM
GI50 [57]: > 62.5 µM
TGI [57]: > 62.5 µM
GI50 [51]: > 62.5 µM
TGI [51]: > 62.5 µM
GI50 [52]: > 62.5 µM
TGI [52]: > 62.5 µM
GI50 [53]: > 62.5 µM
TGI [53]: > 62.5 µM

— PubChem BioAssay (NCI)
